The test system of data set [1] is human hepatocytes. Description: Metabolite identification after incubation of 5-MeO-DMT with human hepatocytes. The settings on record: 5-MeO-DMT free base 10 μM, up to 120 minutes. The protocol:
For incubations with cryopreserved hepatocytes, the 2 mM stock solution was diluted with Leibovitz L-15 medium to a concentration of 20 μM or 2 μM. An aliquot (250 μL) of the 20 μM and 2 μM test substance formulations was added to each hepatocyte incubation sample (250 μL), as appropriate, so that the final test substance concentration in the incubations was 10 μM or 1 μM, respectively, and incubations contained less than 1% (v/v) solvent.
Incubations were performed at ca. 37° C. in a shaking water bath (total incubation volume 0.5 mL). For 1 μM, incubations were terminated after 0, 5, 10, 20, 30, 60 and 120 minutes, by the addition of ice-cold acetonitrile (0.5 mL).
The samples were vortex mixed and centrifuged at ca 13,000 rpm for 10 minutes at room temperature. Following centrifugation, the protein-free supernatants were removed for analysis.
Blank control incubations were carried out with Leibovitz L-15 medium in place of the test substance. No cells control samples were performed with Leibovitz L-15 medium in place of hepatocytes. Aliquots of the blank control samples were taken at 120 minutes, while no cells control samples were taken at 0, 30 and 120 for 1 μM incubations and at 0 and 120 minutes for 10 μM incubations.
All 1 μM incubations were performed in duplicate, while all 10 μM incubations were performed in singlet. All samples were stored at −80° C. (nominal) prior to analysis.
Prior to sample analysis a 100 μL aliquot of each sample was evaporated to near dryness under a steady stream of nitrogen at room temperature, and subsequently reconstituted in 50 μL of mobile phase A (0.1% formic acid in water). Each sample (0, 30 and 120-minute, 10 μM) was analysed using accurate mass LC-MS to determine relative levels of parent compound at each time-point, and determine the profile of metabolites formed. Appropriate blank and control samples were also analysed. The 10 and 60-minute, 10 μM incubation samples were not analysed and were stored at −80° C. (nominal).
Data were interrogated for the presence of metabolites by comparison of retention times with the test substance reference standard and based on the accurate masses of potential metabolites using screening software (UNIFI version 1.9.4), and user defined search parameters. To confirm a suspected metabolite, the measured accurate mass of the peak detected in the sample used for structural elucidation had to be within 5 ppm of the theoretical mass in order to confirm the molecular formula.

In data set [2] the test system is human hepatocytes. As to the kind of experiment: Metabolic stability in Hμrel human hepatocyte co-culture model.
The nature of data set [3]: 5-MeO-DMT, 5-MIAA and bufotenine in urine, serum and breastmilk of a lactating PPD patient, LC-MS/MS. The protocol: The second patients was lactating, and, per the clinical trial protocol, breastmilk samples were collected pre-dosing and at multiple timepoints after administration of the last dose. […] Similar analyses were carried out on patient serum and urine samples.

A further data set deals with human plasma protein. As to the kind of experiment: Plasma binding of 5-MIAA (unbound fraction). It counts as in vitro ADME. The protocol:
Binding to human plasma protein was determined. Reported are the unbound fraction (fu) for three replicates as well as the mean unbound fraction, the standard deviation and the mean % recovery (Table 8).

Where [4] appears, read: 1.0 hrs after last dose (6 mg then 12 mg 5-MeO-DMT).

Here are results for four compounds from patent publication US20240108602A1, “TREATMENT OF MENTAL DISORDERS” (GH Research Ireland Limited, priority 2022, published 2024).

Entries after “also recorded” stand apart in the source; their conditions may differ.

A word on the half-life: it is the time needed for the level to fall by half in the phase considered. High values mean slow loss, low ones fast loss.

Consider `COc1ccc2[nH]cc(CCO)c2c1` [5-methoxytryptophol, 5-Methoxyindole-3-ethanol], for which, in the data set with human hepatocytes [1], the “Relative Proportion of compound after incubation of 5-MeO-DMT” value (“Relative Proportion of compound” for short) is given as 25%. In addition, the “relative LC/MS peak area” value in the data set with human hepatocytes [2] (1 μM Stromal cells, 0 h) came to 100%; with human hepatocytes [2] (1 μM Stromal cells, 4 h) it was 97%; in the data set with human hepatocytes [2] (1 μM Stromal cells, 8 h), 107%; in the data set with human hepatocytes [2] (1 μM Stromal cells, 24 h) it was 94%; with human hepatocytes [2] (1 μM Stromal cells, 48 h), 102%; in the data set on human hepatocytes [2] (1 μM Stromal cells, 72 h), 104%. In addition, the “relative LC/MS peak area” value in the data set on human hepatocytes [2] (10 μM Stromal cells, 0 h) turned out to be 100%; in the data set with human hepatocytes [2] (10 μM Stromal cells, 4 h), 99%; in the data set on human hepatocytes [2] (10 μM Stromal cells, 8 h) it was 105%; in the data set on human hepatocytes [2] (10 μM Stromal cells, 24 h), 86%; in the data set with human hepatocytes [2] (10 μM Stromal cells, 48 h) it was 98%; in the data set on human hepatocytes [2] (10 μM Stromal cells, 72 h) it was 104%. The metabolic turnover entry in the data set on human hepatocytes [2] (human hepatocytes) was “high metabolic turnover”. This compound also yielded a half-life in the data set with human hepatocytes [2] (human hepatocytes, 1 μM) of 2.37 h. Besides, the “in vitro intrinsic clearance” value with human hepatocytes [2] (human hepatocytes, 1 μM) is recorded as 16.2 μl/min/million cells. Further, in the data set with human hepatocytes [2] (stromal cell controls), the “disappearance with stromal cell controls” value is listed as “no disappearance”.
On to `COc1ccc2[nH]cc(CC[N+](C)(C)[O-])c2c1` [5-MeO-DMT-N-oxide], for which, in the data set with human hepatocytes [1], the “Relative Proportion of compound” value came to 1%.
Consider `CN(C)CCc1c[nH]c2ccc(O)cc12` [Bufotenine], for which, in the data set on human hepatocytes [1], the “Relative Proportion of compound” value was 5%. The Breastmilk concentration result in data set [3] (setting [4]) is “BLQ (BLQ: Below limit of quantification. The lower limit of quantification is 25 pg/ml for both 5-MeO-DMT and 5-MIAA in both serum and breastmilk; it is 25 pg/ml in urine for 5-MeO-DMT and 250 pg/ml for 5-MIAA in urine.)”; in data set [3] (2.5 hrs after last dose), “BLQ (BLQ: Below limit of quantification. The lower limit of quantification is 25 pg/ml for both 5-MeO-DMT and 5-MIAA in both serum and breastmilk; it is 25 pg/ml in urine for 5-MeO-DMT and 250 pg/ml for 5-MIAA in urine.)”; in data set [3] (8.5 hrs after last dose), “BLQ (BLQ: Below limit of quantification. The lower limit of quantification is 25 pg/ml for both 5-MeO-DMT and 5-MIAA in both serum and breastmilk; it is 25 pg/ml in urine for 5-MeO-DMT and 250 pg/ml for 5-MIAA in urine.)”; in data set [3] (24.0 hrs after last dose), “BLQ (BLQ: Below limit of quantification. The lower limit of quantification is 25 pg/ml for both 5-MeO-DMT and 5-MIAA in both serum and breastmilk; it is 25 pg/ml in urine for 5-MeO-DMT and 250 pg/ml for 5-MIAA in urine.)”; in data set [3] (120.0 hrs after last dose), “BLQ (BLQ: Below limit of quantification. The lower limit of quantification is 25 pg/ml for both 5-MeO-DMT and 5-MIAA in both serum and breastmilk; it is 25 pg/ml in urine for 5-MeO-DMT and 250 pg/ml for 5-MIAA in urine.)”; in data set [3] (−24.0 hrs (pre-dosing)) it was “BLQ (BLQ: Below limit of quantification. The lower limit of quantification is 25 pg/ml for both 5-MeO-DMT and 5-MIAA in both serum and breastmilk; it is 25 pg/ml in urine for 5-MeO-DMT and 250 pg/ml for 5-MIAA in urine.)”. The Serum concentration entry in data set [3] (setting [4]) was “BLQ (BLQ: Below limit of quantification. The lower limit of quantification is 25 pg/ml for both 5-MeO-DMT and 5-MIAA in both serum and breastmilk; it is 25 pg/ml in urine for 5-MeO-DMT and 250 pg/ml for 5-MIAA in urine.)”; in data set [3] (2.5 hrs after last dose), “BLQ (BLQ: Below limit of quantification. The lower limit of quantification is 25 pg/ml for both 5-MeO-DMT and 5-MIAA in both serum and breastmilk; it is 25 pg/ml in urine for 5-MeO-DMT and 250 pg/ml for 5-MIAA in urine.)”; in data set [3] (24.0 hrs after last dose), “BLQ (BLQ: Below limit of quantification. The lower limit of quantification is 25 pg/ml for both 5-MeO-DMT and 5-MIAA in both serum and breastmilk; it is 25 pg/ml in urine for 5-MeO-DMT and 250 pg/ml for 5-MIAA in urine.)”; in data set [3] (120.0 hrs after last dose), “BLQ (BLQ: Below limit of quantification. The lower limit of quantification is 25 pg/ml for both 5-MeO-DMT and 5-MIAA in both serum and breastmilk; it is 25 pg/ml in urine for 5-MeO-DMT and 250 pg/ml for 5-MIAA in urine.)”; in data set [3] (−24.0 hrs (pre-dosing)), “BLQ (BLQ: Below limit of quantification. The lower limit of quantification is 25 pg/ml for both 5-MeO-DMT and 5-MIAA in both serum and breastmilk; it is 25 pg/ml in urine for 5-MeO-DMT and 250 pg/ml for 5-MIAA in urine.)”. Moreover, the Urine concentration in data set [3] (2.5 hrs after last dose) is 32.3 pg/mL; in data set [3] (8.5 hrs after last dose), “BLQ (BLQ: Below limit of quantification. The lower limit of quantification is 25 pg/ml for both 5-MeO-DMT and 5-MIAA in both serum and breastmilk; it is 25 pg/ml in urine for 5-MeO-DMT and 250 pg/ml for 5-MIAA in urine.)”; in data set [3] (24.0 hrs after last dose) it was “BLQ (BLQ: Below limit of quantification. The lower limit of quantification is 25 pg/ml for both 5-MeO-DMT and 5-MIAA in both serum and breastmilk; it is 25 pg/ml in urine for 5-MeO-DMT and 250 pg/ml for 5-MIAA in urine.)”; in data set [3] (120.0 hrs after last dose) it was “BLQ (BLQ: Below limit of quantification. The lower limit of quantification is 25 pg/ml for both 5-MeO-DMT and 5-MIAA in both serum and breastmilk; it is 25 pg/ml in urine for 5-MeO-DMT and 250 pg/ml for 5-MIAA in urine.)”; in data set [3] (−24.0 hrs (pre-dosing)), “BLQ (BLQ: Below limit of quantification. The lower limit of quantification is 25 pg/ml for both 5-MeO-DMT and 5-MIAA in both serum and breastmilk; it is 25 pg/ml in urine for 5-MeO-DMT and 250 pg/ml for 5-MIAA in urine.)”. Moreover, the “detection in serum and breastmilk” value in data set [3] (any time point) is “absence of bufotenine; also recorded: not detected”.
Consider `CC(=O)CC(c1ccccc1)c1c(O)c2ccccc2oc1=O` (centres unmarked) [Warfarin, reference compound], for which, in the data set with human plasma protein, the “Mean % Recovery” value is given as 78.1%; the Mean fu is recorded as 0.0377; the “unbound fraction (fu), Replicate 1” value turned out to be 0.0418; the “unbound fraction (fu), Replicate 2” value came to 0.0356. Moreover, in the data set with human plasma protein, the “unbound fraction (fu), Replicate 3” value is 0.0358.
